From patent US20070066595A1, “Selective estrogen receptor modulators” (priority 2004, published 2007)
Where two headings read alike, the source gives them in different places. Values belong to the molecule of their own block, whether it stands above or below them.

How the values were obtained:
[1] = system: immature (3 week old) female rats, estrogen-induced uterine weight; assay: 3-Day Rat Uterus Antagonist Assay; type: in vivo; conditions: 3 days, with E2 0.1 mg/kg; for inhibition of the estrogen-induced response: 1.0 mg/kg oral, uterine weight/body weight ratio
Source text: 3-Day Rat Uterus Antagonist Assay: This model for uterine antagonism utilizes immature (3 week old) female rats that are highly sensitive to estrogenic stimulation of the uterus given that their circulating estrogen levels are prepubertal. The uteri from immature rats are fully responsive to exogenous estrogen, yet are quiescent in the absence of exogenous estrogen. Administration of exogenous estrogen to immature rats produces a reliable elevation of uterine weight, which can be used to study uterine antagonist effects. The rats are treated with both estradiol and 4 different concentrations of a compound of the present invention for 3 days and then uterine wet weights are measured.
Nineteen to twenty-one day old (or 45-50 g) female rats are orally treated with E2 (0.1 mg/kg, a maximal stimulatory estrogenic stimulus for reliably increasing uterine weight) and 10, 1.0, 0.1 and 0.01 mg/kg test compound for 3 days, 6 rats per group. Test compounds are dissolved in 20% β-hydroxycyclodextrin and administered by oral gavage in a volume of 0.2 mL daily (15 min. prior to the ethynyl estradiol gavage). A vehicle control, E2 alone and E2+raloxifene are also done as controls. The animals are fasted overnight following the final dose. On the following morning, the animals are weighed, then euthanized (by carbon dioxide asphyxiation) and the uteri rapidly collected (via a mid-line ventral incision) and weighed.
Uterine weight/body weight ratios (UWR) are calculated for each animal. The percent inhibition of the estrogen-induced response is then calculated by the following formula: percent inhibition=100×(UWRestrogen−UWRtest compound/UWRestrogen−UWRcontrol). ED50 values are derived from a semi-log regression analysis of the linear aspect of the dose response curve. Both the UWR data and the percent inhibition data are statistically analyzed by one way analysis of variance (ANOVA) with post-hoc testing by Fisher's PLSD when indicated by a p<0.05. Statistical analyses are performed using the Statview® 4.0 software package.

[2] = system: Ishikawa human endometrial tumor cells; assay: Ishikawa Cell Proliferation Assay (alkaline phosphatase readout; agonist and antagonist modes); type: cell-based
Description: Ishikawa Cell Proliferation Assay: This assay measures cell proliferation (using an alkaline phosphatase readout) in both an agonist mode in the presence of a compound of the present invention alone, and in an antagonist mode in which the ability of a compound of the present invention to block estradiol stimulation of growth is measured.
Ishikawa human endometrial tumor cells are maintained in MEM (minimum essential medium, with Earle's salts and L-Glutamine, Gibco BRL, Gaithersburg, Md.), supplemented with 10% fetal bovine serum (FBS) (V/V), (Gibco BRL). One day prior to assay, growth media is changed to assay medium, DMEM/F-12 (3:1) (Dulbecco's Modified Eagle Medium: Nutrient Mixture F-12, 3:1 Mixture, phenol red-free, Gibco BRL) supplemented with 5% dextran coated charcoal stripped fetal bovine serum (DCC-FBS) (Hyclone, Logen, Utah), L-Glutamine (2 mM), MEM sodium pyruvate (1 mM), HEPES (N-[2-hydroxyethyl]piperazine-N′-[2-ethanesulfonic acid]2 mM) all from Gibco BRL). After an overnight incubation, Ishikawa cells are rinsed with Dulbecco's Phosphate Buffered Saline (1×) (D-PBS) without Ca^+2 and Mg^+2 (Gibco BRL), and trypsinized by a 3 minute incubation with 0.25% Trypsin/EDTA, phenol red-free (Gibco BRL). Cells are resuspended in assay medium and adjusted to 250,000 cells/mL. Approximately 25,000 cells in a 100 ul media are added to flat-bottom 96 wells microculture plates (Costar 3596) and incubated at 37° C. in a 5% CO2 humidified incubator for 24 hours. […]
For the antagonist mode, plates receive 25 μl/well of 6 nM E2 (β-Estradiol, Sigma, St. Louis, Mo.) followed by 25 μl/well of a diluted compound of the present invention (at 6× the final concentrations). […] After a 20-minute incubation, plates are read on a spectophotometer at 405 nm.
The data is fitted to a linear interpolation to derive EC50 (for agonist mode) or IC50 (for antagonist mode) values. For the antagonist mode, a % efficacy for each compound is calculated versus E2 (1 nM) alone. For the agonist mode, a % efficacy for each compound is calculated versus the response to tamoxifen.

[3] = system: mature F344 female rats, serum LH and estradiol; assay: 10-Day Rat Hormone (Ovarian Stimulation) Screen; type: in vivo; conditions: oral gavage 10 days; serum about 2 hours after 10th dose; RIA
Description: 10-Day Rat Hormone (Ovarian Stimulation) Screen: An initial, first screen for ovarian toxicity is conducted using a 10-day rat hormone study to measure estradiol and luteinizing hormone levels after compound administration. This screen is conducted by administering compound by oral gavage for 10 days to mature (9-10 week old) F344 female rats. Trunk blood is collected by rapid decapitation for evaluation of LH and estradiol levels approximately 2 hours after the 10th dose. Serum, obtained by centrifugation, is removed and stored frozen below −60° C. until assayed. Serum levels of LH and estradiol are measured using radioimmunoassay (RIA) methods.
Rat LH primary antibody and reference preparations (rat LH:RP-3) are obtained from Dr. A. F. Parlow, Director, Pituitary Hormones and Antisera Center, Harbor-UCLA Medical Center, Torrance, Calif. The LH assay upper limits of detection are 30 ng/mL and the lower limits of detection are 0.1 ng/mL for the 100 μl samples.
E2 Clinical Assays. DiaSorin s.r.l., Saluggia (Vercelli), Italy. The upper limit of detection is 1000 pg/mL and the lower limit of detection is 5 pg/mL.

IC50 ([2]; antagonist mode, block of estradiol stimulation): 7.2 nM
SMILES: Cl.O=S1(=O)CC=C(c2ccc3cc(O)ccc3c2Oc2ccc(OCCN3CCCCC3)cc2)CC1 [Example 9, 6-(1,1-Dioxo-1,2,3,6-tetrahydro-1λ^6-thiopyran-4-yl)-5-[4-(2-piperidin-1-yl-ethoxy)-phenoxy]-naphthalen-2-ol Hydrochloride]
inhibition of the estrogen-induced response [1]: inhibit the estrogen-induced response | % antagonism ([1]; oral): 72.6% | ED50 ([1]; oral): 0.17 mpk | Emax ([2]; agonist mode, versus the response to tamoxifen, read-out: relative % efficacy): 19% | Emax ([2]; antagonist mode, versus E2 (1 nM) alone, read-out: % efficacy (inhibition of the 1 nM estradiol response)): 97.9%

circulating LH levels [3]: did not significantly elevate | circulating estradiol levels [3]: did not significantly elevate
SMILES: CS(=O)(=O)C1CC=C(c2ccc3cc(O)ccc3c2Oc2ccc(OCCN3CCCCC3)cc2)CC1.Cl (racemic) [Example 2, (+/−)-6-(4-Methanesulfonyl-cyclohex-1-enyl)-5-[4-(2-piperidin-1-yl-ethoxy)-phenoxy]-naphthalen-2-ol Hydrochloride]
inhibition of the estrogen-induced response [1]: inhibit the estrogen-induced response

SMILES: Cl.O=S1(=O)CCC(c2ccc3cc(O)ccc3c2Oc2ccc(OCCN3CCCCC3)cc2)CC1 [Example 10, 6-(1,1-Dioxo-hexahydro-1λ^6-thiopyran-4-yl)-5-[4-(2-piperidin-1-yl-ethoxy)-phenoxy]-naphthalen-2-ol Hydrochloride]
inhibition of the estrogen-induced response [1]: inhibit the estrogen-induced response

SMILES: CS(=O)(=O)C1CCC(c2ccc3cc(O)ccc3c2Oc2ccc(OCCN3CCCCC3)cc2)CC1.Cl (stereo not drawn) [Example 3, 6-cis-and-trans-(4-Methanesulfonyl-cyclohexyl)-5-[4-(2-piperidin-1-yl-ethoxy)-phenoxy]-naphthalen-2-ol Hydrochloride]
inhibition of the estrogen-induced response [1]: inhibit the estrogen-induced response
